Values quoted from earlier work, collected in US20130315977A1, “TRANSDERMAL PATCH” (priority 2011, published 2013).

What was measured:
dopamine D2 = dopamine D2 (Homo sapiens, UniProt P14416); conditions: as compared to haloperidol
serotonin 5-HT2 receptor = conditions: as compared to haloperidol

dopamine D2, sequence (P14416 whole entry): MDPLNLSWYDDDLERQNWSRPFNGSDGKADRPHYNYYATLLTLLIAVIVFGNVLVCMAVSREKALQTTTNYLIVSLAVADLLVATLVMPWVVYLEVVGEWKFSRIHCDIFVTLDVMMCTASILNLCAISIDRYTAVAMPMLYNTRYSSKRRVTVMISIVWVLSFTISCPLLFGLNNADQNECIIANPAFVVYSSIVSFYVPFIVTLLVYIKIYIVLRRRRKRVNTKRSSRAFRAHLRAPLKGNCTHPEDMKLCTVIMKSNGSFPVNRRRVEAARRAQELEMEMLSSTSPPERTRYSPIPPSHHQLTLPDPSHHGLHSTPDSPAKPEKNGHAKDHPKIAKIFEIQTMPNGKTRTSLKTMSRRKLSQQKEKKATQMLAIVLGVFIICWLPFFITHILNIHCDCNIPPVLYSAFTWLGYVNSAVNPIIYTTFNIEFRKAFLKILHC

CCN1CCN(c2cc(-c3ccc(F)cc3)c3c(n2)CCCCCC3)CC1 [Blonanserin, 2-(4-ethyl-1-piperazinyl)-4-(4-fluorophenyl)-5,6,7,8,9,10-hexahydrocycloocta[b]pyridine]
affinity for dopamine D2 (dopamine D2): high affinity
affinity for serotonin 5-HT2 receptor (serotonin 5-HT2 receptor): high affinity
